# Experimental data: ChEMBL document CHEMBL3885861, “Open TG-GATES”
# Organism: Rattus norvegicus
# Test: Open TG-GATES - Regimen: Single
# Assay type: toxicity, organism-based, Sprague-Dawley
# Set-up: regimen Single, gender Male, age 6 weeks
# Settings: in vivo, po, 0 mg/kg, route gavage, dose level Control; for APTT / Bas / Eos / Fbg / Hb / Ht / Lym / MCH / MCHC / MCV / Mono / Neu / PT / Plat / RBC / Ret / WBC: tissue Blood; for KIDNEY_L / KIDNEY_R / KIDNEY_TOTAL: tissue Kidney; for LIVER: tissue Liver; for ALP / ALT / AST / BUN / CRE / DBIL / GLC / K / Na / PL / RALB / TBIL / TC / TG / TP / gamma-GTP: tissue Plasma
structure (smiles),measurement,setting,value
CN1C(=O)CN=C(c2ccccc2)c2cc(Cl)ccc21 [DIAZEPAM],TERMINAL_BW,3 h,214.4 g
same,APTT,3 h,15.9 s
same,Bas,3 h,0%
same,Eos,3 h,1%
same,Fbg,3 h,213.4 mg/dL
same,Hb,3 h,13.5 g/dL
same,Ht,3 h,40.5%
same,Lym,3 h,71.2%
same,MCH,3 h,22.3 pg
same,MCHC,3 h,33.3%
same,MCV,3 h,66.9 fL
same,Mono,3 h,8.6%
same,Neu,3 h,19.6%
same,PT,3 h,12.4 s
same,Plat,3 h,101 x10_4/uL
same,RBC,3 h,606 x10_4/ul
same,Ret,3 h,8.2%
same,WBC,3 h,109.8 x10_2/uL
same,KIDNEY_L,3 h,1 g
same,KIDNEY_R,3 h,1 g
same,KIDNEY_TOTAL,3 h,2 g
same,LIVER,3 h,10.2 g
same,ALP,3 h,836.4 IU/L
same,ALT,3 h,31.8 IU/L
same,AST,3 h,66.6 IU/L
same,BUN,3 h,14.2 mg/dL
same,CRE,3 h,0.5 mg/dL
same,DBIL,3 h,0.028 mg/dL
same,GLC,3 h,187.4 mg/dL
same,K,3 h,5.2 meq/L
same,Na,3 h,138.8 meq/L
same,PL,3 h,131.6 mg/dL
same,RALB,3 h,3.7 g/dL
same,TBIL,3 h,0.4 mg/dL
same,TC,3 h,71 mg/dL
same,TG,3 h,52.2 mg/dL
same,TP,3 h,5.5 g/dL
same,gamma-GTP,3 h,1.8 IU/L
same,TERMINAL_BW,6 h,213 g
same,APTT,6 h,16.6 s
same,Bas,6 h,0%
same,Eos,6 h,0.6%
same,Fbg,6 h,216 mg/dL
same,Hb,6 h,13.8 g/dL
same,Ht,6 h,41.8%
same,Lym,6 h,77.2%
same,MCH,6 h,21.4 pg
same,MCHC,6 h,33.1%
same,MCV,6 h,64.6 fL
same,Mono,6 h,6.4%
same,Neu,6 h,15.8%
same,PT,6 h,12.6 s
same,Plat,6 h,106.4 x10_4/uL
same,RBC,6 h,647 x10_4/ul
same,Ret,6 h,8.5%
same,WBC,6 h,105.2 x10_2/uL
same,KIDNEY_L,6 h,1 g
same,KIDNEY_R,6 h,1 g
same,KIDNEY_TOTAL,6 h,2 g
same,LIVER,6 h,9.6 g
same,ALP,6 h,878 IU/L
same,ALT,6 h,29.6 IU/L
same,AST,6 h,60 IU/L
same,BUN,6 h,9.8 mg/dL
same,CRE,6 h,0.5 mg/dL
same,DBIL,6 h,0.016 mg/dL
same,GLC,6 h,203 mg/dL
same,K,6 h,4.9 meq/L
same,Na,6 h,138.6 meq/L
same,PL,6 h,140 mg/dL
same,RALB,6 h,3.7 g/dL
same,TBIL,6 h,0.3 mg/dL
same,TC,6 h,74.8 mg/dL
same,TG,6 h,84.2 mg/dL
same,TP,6 h,5.6 g/dL
same,gamma-GTP,6 h,1.2 IU/L
same,TERMINAL_BW,9 h,212.8 g
same,APTT,9 h,15.7 s
same,Bas,9 h,0%
same,Eos,9 h,0.8%
same,Fbg,9 h,215.4 mg/dL
same,Hb,9 h,13.6 g/dL
same,Ht,9 h,41.5%
same,Lym,9 h,79.2%
same,MCH,9 h,21.7 pg
same,MCHC,9 h,32.8%
same,MCV,9 h,66 fL
same,Mono,9 h,5.6%
same,Neu,9 h,14.4%
same,PT,9 h,12.7 s
same,Plat,9 h,101.7 x10_4/uL
same,RBC,9 h,628.4 x10_4/ul
same,Ret,9 h,8.2%
same,WBC,9 h,117.7 x10_2/uL
same,KIDNEY_L,9 h,1 g
same,KIDNEY_R,9 h,1 g
same,KIDNEY_TOTAL,9 h,2 g
same,LIVER,9 h,9 g
same,ALP,9 h,712.4 IU/L
same,ALT,9 h,29 IU/L
same,AST,9 h,59.8 IU/L
same,BUN,9 h,10.6 mg/dL
same,CRE,9 h,0.6 mg/dL
same,DBIL,9 h,0.038 mg/dL
same,GLC,9 h,204 mg/dL
same,K,9 h,4.8 meq/L
same,Na,9 h,138.6 meq/L
same,PL,9 h,130.4 mg/dL
same,RALB,9 h,3.7 g/dL
same,TBIL,9 h,0.4 mg/dL
same,TC,9 h,75 mg/dL
same,TG,9 h,41.6 mg/dL
same,TP,9 h,5.5 g/dL
same,gamma-GTP,9 h,1.8 IU/L
same,TERMINAL_BW,24 h,227.4 g
same,APTT,24 h,16.7 s
same,Bas,24 h,0%
same,Eos,24 h,1%
same,Fbg,24 h,210.2 mg/dL
same,Hb,24 h,13.7 g/dL
same,Ht,24 h,41%
same,Lym,24 h,81.6%
same,MCH,24 h,21.9 pg
same,MCHC,24 h,33.4%
same,MCV,24 h,65.8 fL
same,Mono,24 h,5.8%
same,Neu,24 h,12.2%
same,PT,24 h,12.2 s
same,Plat,24 h,108.9 x10_4/uL
same,RBC,24 h,624.2 x10_4/ul
same,Ret,24 h,7.7%
same,WBC,24 h,114.5 x10_2/uL
same,KIDNEY_L,24 h,1.1 g
same,KIDNEY_R,24 h,1 g
same,KIDNEY_TOTAL,24 h,2.1 g
same,LIVER,24 h,11.2 g
same,ALP,24 h,817.8 IU/L
same,ALT,24 h,33.4 IU/L
same,AST,24 h,58.4 IU/L
same,BUN,24 h,15.2 mg/dL
same,CRE,24 h,0.5 mg/dL
same,DBIL,24 h,0.006 mg/dL
same,GLC,24 h,191.2 mg/dL
same,K,24 h,5.1 meq/L
same,Na,24 h,138.6 meq/L
same,PL,24 h,131.8 mg/dL
same,RALB,24 h,3.9 g/dL
same,TBIL,24 h,0.3 mg/dL
same,TC,24 h,63.2 mg/dL
same,TG,24 h,112.8 mg/dL
same,TP,24 h,5.8 g/dL
same,gamma-GTP,24 h,1 IU/L
